Source: article PMC12238850, “Molecular determinants for recognition of serotonylated chromatin” (Nucleic Acids Research, 2025)
Residue numbers refer to the chain shown, from its start. Read-outs that look alike come from different tables or passages of the source.

Columns and labels:
Assay type in all cases: binding
[1] = target: T1, TAF3 WT (GST-tagged Taf3-PHD, residues 857–924) (Mus musculus, UniProt Q5HZG4); test: ITC of GST-tagged Taf3-PHD wild type
T1 construct: Mus musculus Taf3-PHD domain (residues 857–924); made in house; host or cells: E. coli BL21(DE3)
T1 sequence (Q5HZG4 857-924): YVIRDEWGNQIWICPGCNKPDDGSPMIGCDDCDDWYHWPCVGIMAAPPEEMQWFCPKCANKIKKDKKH
Excerpt: (§1) The coding sequences of Mus musculus Taf3-PHD domain (residues 857–924) and Homosapiens PHF2 (1–66), PHF8 (37–102), and BPTF(2) (2865–2921) were cloned into the pGEX2T-derived vector, pRP265NB, for bacterial expression of GST-tagged proteins. Note that the PHD fingers of M. musculus Taf3 and H. sapiens TAF3 differ in a single amino acid. A901 in mouse corresponds to T899 in human. Here, amino acid numbering corresponds to mouse Taf3 isoform 1 with UniProt ID: Q5HZG4, accessible at https://www.uniprot.org/uniprotkb/Q5HZG4/entry. Single or double mutations were introduced by mutagenesis polymerase chain reaction and validated by Sanger sequencing. A single colony of freshly transformed BL21(DE3) Escherichia coli bacteria with the corresponding construct was grown in Luria broth (LB) medium supplemented with 50 μg/ml ampicillin until an OD600 of 0.7. […]
(§2) ITC experiments were performed at 20°C with a MicroCal VP-ITC microcalorimeter (Malvern) by sequential injection of 10 μl at 300 μM histone peptide during 20 s into the sample cell containing 30 or 15 μM of GST-Taf3 (wild type or mutant) or GST-BPTF, GST-PHF2, and GST-PHF8 PHDs in ITC buffer (100 mM NaCl, 20 mM Tris–HCl, pH 7.5). […] ITC data were subsequently analysed and fitted with the one-site binding model in the MicroCal ITC Origin Analysis software 7.0 (Table 1, Figs 3B and 5A, Supplementary Table S3, and Supplementary Fig. S10). […]

[2] = target: T2, TAF3 W894I (GST-tagged PHD) (Mus musculus, UniProt Q5HZG4, W894I); test: ITC of GST-tagged Taf3-PHD W894I
T2 construct: Mus musculus Taf3-PHD domain (residues 857–924); made in house; host or cells: E. coli BL21(DE3)
T2 sequence (Q5HZG4 857-924 W894I): T1 sequence (Q5HZG4 857-924) with W38I
Excerpt: as §1, §2

[3] = target: T3, PHF2 PHD (1–66, GST-tagged) (Homo sapiens, UniProt O75151); test: ITC of GST-tagged PHF2 PHD
T3 construct: PHF2 (1–66); made in house; host or cells: E. coli BL21(DE3)
T3 sequence (O75151 1-66): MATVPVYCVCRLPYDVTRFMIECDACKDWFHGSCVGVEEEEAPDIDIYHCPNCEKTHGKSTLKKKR
Excerpt: as §1, §2

[4] = target: T4, TAF3 W894L (GST-tagged PHD) (Mus musculus, UniProt Q5HZG4, W894L); test: ITC of GST-tagged Taf3-PHD W894L
T4 construct: Mus musculus Taf3-PHD domain (residues 857–924); made in house; host or cells: E. coli BL21(DE3)
T4 sequence (Q5HZG4 857-924 W894L): T1 sequence (Q5HZG4 857-924) with W38L
Excerpt: as §1, §2

[5] = ITC, 20°C, 100 mM NaCl, 20 mM Tris–HCl, pH 7.5, one-site model, ± = standard error of fit, read-out: K D

Kd ([1]; ITC, 20°C, 100 mM NaCl, 20 mM Tris–HCl, pH 7.5, 300 μM peptide into 30 or 15 μM GST-PHD, one-site model, ± = standard error of fit, representative experiment, read-out: K D) | Kd [2, 5] | Kd [3, 5] | Kd [4, 5] | Compound | Kd [1] | Kd [2] | Kd [3] | Kd [4]
 |  |  |  | C[C@H](N)C(=O)N[C@@H](CCCNC(=N)N)C(=O)N[C@H](C(=O)N[C@@H](CCCC[N+](C)(C)C)C(=O)N[C@@H](CCC(=O)NCCc1c[nH]c2ccc(O)cc12)C(=O)N[C@H](C(=O)N[C@@H](C)C(=O)N[C@@H](CCCNC(=N)N)C(=O)N[C@@H](CCCCN)C(=O)N[C@@H](CO)C(=O)N[C@H](C(=O)NCC(N)=O)[C@@H](C)O)[C@@H](C)O)[C@@H](C)O [H3K4me3Q5ser] | 98 ± 8 nM | 106 ± 8 nM | 201 ± 22 nM | 324 ± 18 nM
260 ± 16 nM | 279 ± 17 nM | 286 ± 23 nM | 595 ± 35 nM | C[C@H](N)C(=O)N[C@@H](CCCNC(=N)N)C(=O)N[C@H](C(=O)N[C@@H](CCCC[N+](C)(C)C)C(=O)N[C@@H](CCC(N)=O)C(=O)N[C@H](C(=O)N[C@@H](C)C(=O)N[C@@H](CCCNC(=N)N)C(=O)N[C@@H](CCCCN)C(=O)N[C@@H](CO)C(=O)N[C@H](C(=O)NCC(N)=O)[C@@H](C)O)[C@@H](C)O)[C@@H](C)O [H3K4me3] |  |  |  | 
